Measurements: patent US7354726B2, “Screening method” (Takeda Pharmaceutical Company Limited, priority 2001, dated 2008)

Columns and labels:
TGR5 [1] = biological target: T1, TGR5 (Homo sapiens, UniProt Q8TDU6); assay: cAMP production in TGR5 expressing CHO cells (CHO-TGR5); type: cell-based; parameters: expressed in transfected cells; settings: CHO-TGR5, 20 minutes; potency in order TLCA, LCA, DCA, CDCA, CA
T1 sequence (Q8TDU6 1-330): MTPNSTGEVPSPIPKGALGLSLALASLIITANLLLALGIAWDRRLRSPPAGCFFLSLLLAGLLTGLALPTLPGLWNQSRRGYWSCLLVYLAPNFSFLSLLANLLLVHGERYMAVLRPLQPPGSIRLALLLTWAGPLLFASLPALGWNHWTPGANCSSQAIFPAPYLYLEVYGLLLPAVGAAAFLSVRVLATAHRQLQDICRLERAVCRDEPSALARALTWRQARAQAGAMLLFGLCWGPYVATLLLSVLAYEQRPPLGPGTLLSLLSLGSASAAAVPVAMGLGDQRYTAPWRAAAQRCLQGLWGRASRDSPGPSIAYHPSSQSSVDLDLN
Procedure: The cells were washed twice with assay buffer (DMEM supplemented with 0.1% bovine serum albumin and 0.2 mM 3-isobutyl-1-methylxanthine (IBMX)) and preincubated for 30 minutes. After washing the cells twice, a sample diluted with assay buffer was added to the cells, and the cells were incubated for 20 minutes. The culture supernatant was discarded, and by cAMP Screen System (ABI), cAMP production level was measured. […] The cAMP production level was represented by % for positive control as 100%.

rabbit TGR5 = biological target: T2, rabbit TGR5 (Oryctolagus cuniculus, UniProt Q862A8); assay: CRE-luciferase reporter assay in CHO-mock cells co-expressing Gi and rabbit TGR5; type: cell-based; settings: 10 μM bile acid, rabbit TGR5, versus group with no bile acid (Base)
T2 construct: expressed in transfected cells; host or cells: CHO-mock cells, transient, with Gi plasmid and reporter plasmid
T2 sequence (Q862A8 1-330): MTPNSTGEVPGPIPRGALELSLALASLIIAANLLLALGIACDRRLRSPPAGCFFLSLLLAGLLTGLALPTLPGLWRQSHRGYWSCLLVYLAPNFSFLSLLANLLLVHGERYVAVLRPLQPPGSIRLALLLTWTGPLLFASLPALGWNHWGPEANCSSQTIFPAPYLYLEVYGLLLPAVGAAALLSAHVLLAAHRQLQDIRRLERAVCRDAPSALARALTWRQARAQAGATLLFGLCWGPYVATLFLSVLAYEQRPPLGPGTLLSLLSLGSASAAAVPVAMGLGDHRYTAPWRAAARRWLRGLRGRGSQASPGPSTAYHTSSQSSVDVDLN
Procedure: (§1) Alternatively, an assay under condition wherein forskolin was added to the assay buffer at the final concentration of 2 μM, was performed in the same way. […] After completion of incubation, the assay buffer was removed from each well. Then 50 μl of luminescent substrate for PicaGene LT2.0 (Toyo Ink) was added to each well.
(§2) The mixing ratio of these three plasmids is, where the total volume is 11 μl, appropriate for 1 to 6, preferably 1 to 3 of Gi.
(§3) For a positive control of reporter gene expression, forskolin (FSSK, 2 μM) was used.

bovine TGR5 = biological target: T3, bovine TGR5 (Bos taurus, UniProt Q862A9); assay: CRE-luciferase reporter assay in CHO-mock cells co-expressing Gi and bovine TGR5; type: cell-based; settings: 10 μM bile acid, bovine TGR5, versus group with no bile acid (Base)
T3 construct: expressed in transfected cells; host or cells: CHO-mock cells, transient, with Gi plasmid and reporter plasmid
T3 sequence (Q862A9 1-329): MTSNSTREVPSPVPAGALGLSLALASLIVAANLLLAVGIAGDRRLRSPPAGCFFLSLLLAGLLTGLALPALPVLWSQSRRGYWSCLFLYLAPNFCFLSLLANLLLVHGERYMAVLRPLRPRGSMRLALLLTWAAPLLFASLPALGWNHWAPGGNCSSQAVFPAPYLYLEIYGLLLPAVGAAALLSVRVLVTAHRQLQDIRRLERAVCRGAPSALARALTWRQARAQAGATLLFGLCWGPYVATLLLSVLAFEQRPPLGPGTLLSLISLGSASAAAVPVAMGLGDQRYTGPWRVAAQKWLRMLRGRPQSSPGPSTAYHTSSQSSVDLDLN
Procedure: as §1, §2, §3

mouse TGR5 = biological target: T4, mouse TGR5 (Mus musculus, UniProt Q80SS6); assay: CRE-luciferase reporter assay in CHO-mock cells co-expressing Gi and mouse TGR5; type: cell-based; settings: 10 μM bile acid, mouse TGR5, versus group with no bile acid (Base)
T4 construct: expressed in transfected cells; host or cells: CHO-mock cells, transient, with Gi plasmid and reporter plasmid
T4 sequence (Q80SS6 1-329): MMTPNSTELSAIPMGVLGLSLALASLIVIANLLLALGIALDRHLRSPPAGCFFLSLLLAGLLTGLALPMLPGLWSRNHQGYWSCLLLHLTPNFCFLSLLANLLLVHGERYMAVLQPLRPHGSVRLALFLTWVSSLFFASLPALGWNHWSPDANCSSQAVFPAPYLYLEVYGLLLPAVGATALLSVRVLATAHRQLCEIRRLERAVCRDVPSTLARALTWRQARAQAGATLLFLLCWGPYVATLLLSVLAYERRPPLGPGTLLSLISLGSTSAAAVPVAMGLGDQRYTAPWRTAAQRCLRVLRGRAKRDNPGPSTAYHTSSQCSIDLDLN
Procedure: as §1, §2, §3

rat TGR5 = biological target: T5, rat TGR5 (Rattus norvegicus, UniProt Q80T02); assay: CRE-luciferase reporter assay in CHO-mock cells co-expressing Gi and rat TGR5; type: cell-based; settings: 10 μM bile acid, rat TGR5, versus group with no bile acid (Base)
T5 construct: expressed in transfected cells; host or cells: CHO-mock cells, transient, with Gi plasmid and reporter plasmid
T5 sequence (Q80T02 1-329): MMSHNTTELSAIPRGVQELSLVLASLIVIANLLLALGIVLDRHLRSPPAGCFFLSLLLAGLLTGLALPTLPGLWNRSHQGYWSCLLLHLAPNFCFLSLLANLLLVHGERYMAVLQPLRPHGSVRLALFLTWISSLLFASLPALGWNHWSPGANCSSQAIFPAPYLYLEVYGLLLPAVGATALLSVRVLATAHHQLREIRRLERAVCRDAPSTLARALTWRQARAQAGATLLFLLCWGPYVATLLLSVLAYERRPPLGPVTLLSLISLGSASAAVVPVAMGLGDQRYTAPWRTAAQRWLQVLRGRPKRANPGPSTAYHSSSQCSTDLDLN
Procedure: as §1, §2, §3

TGR5 [2] = biological target: T1, TGR5; assay: CRE-luciferase reporter assay in CHO-mock cells co-expressing Gi and human TGR5; type: cell-based; parameters: expressed in transfected cells; host or cells: CHO-mock cells (CHO(dhfr-) transformed with pAKKO-111H), transient, with Gi plasmid and reporter plasmid; settings: 10 μM bile acid, human TGR5, versus group with no bile acid (Base)
Procedure: as §1, §2, §3

[3] = system: rabbit alveolus macrophage; assay: Phagocytotic activity of rabbit alveolus macrophage (yeast uptake, fuchsin staining); settings: 100 μM, 16 hours
Procedure: From rabbit (NZW, female, approximately 2.5 to 3.0 kg of weight), under anesthesia, serum and lung were collected. By washing with PBS (phosphate-buffered saline) transfused through trachea, suspension containing alveolus macrophage in the lung was recovered. After washing the obtained cells with further PBS, the cells were suspended in medium (DMEM supplemented with 2% FBS, 0.1 mM non-essential amino acids, 50 μg/ml streptomycin, 50 U/ml penicillin and 50 μg/ml gentamicin; any component from GibcoBRL), loaded on Ficoll-Paque Plus (Amersham Pharmacia), isolator for mononuclear cells, and treated with centrifugation to remove erythrocyte. […] Then the cells were further cultured for 16 hours. Fifty μl of serum obtained from the same rabbit, and 0.8×10^8/ml of yeast suspension sterilized by heating, were added to the culture. Subsequently, the cell were cultured under 5% CO2 for 40 minutes. After adding 60 μl of 0.1% fuchsin solution (Wako Pure Chemicals) to the culture, the cells were peeled and were centrifuged. The suspension was observed by microscope.

SMILES | cAMP production (TGR5 [1]) | luciferase activity (reporter gene expression level) (rabbit TGR5) | luciferase activity (reporter gene expression level) (bovine TGR5) | luciferase activity (reporter gene expression level) (mouse TGR5) | luciferase activity (reporter gene expression level) (rat TGR5) | luciferase activity (reporter gene expression level) (TGR5 [2]) | phagocytotic activity of macrophage [3]
C[C@H](CCC(=O)O)[C@H]1CC[C@H]2[C@@H]3[C@H](O)C[C@@H]4C[C@H](O)CC[C@]4(C)[C@H]3C[C@H](O)[C@]12C [CA, cholic acid] | increase of cAMP production, which is dependent on concentration |  |  |  |  |  | 
C[C@H](CCC(=O)O)[C@H]1CC[C@H]2[C@@H]3[C@H](O)C[C@@H]4C[C@H](O)CC[C@]4(C)[C@H]3CC[C@]12C [CDCA, chenodeoxycholic acid] | increase of cAMP production, which is dependent on concentration | higher luciferase activity than that of a group with no bile acid | higher luciferase activity than that of a group with no bile acid | higher luciferase activity than that of a group with no bile acid | higher luciferase activity than that of a group with no bile acid | higher luciferase activity than that of a group with no bile acid | 
C[C@H](CCC(=O)NCC(=O)O)[C@H]1CC[C@H]2[C@@H]3CC[C@@H]4C[C@H](O)CC[C@]4(C)[C@H]3CC[C@]12C [GLCA, glycolithocholic acid] |  |  |  |  |  |  | significantly decreased
